From US20120225061A1, “TETRASUBSTITUTED CYCLOHEXYL COMPOUNDS AS KINASE INHIBITORS” (priority 2011, published 2012)
pEC50, pIC50: −log10 of the molar value.

Experiments:
[1] = tested on: KMS11 (human myeloma cell line); experiment: Cell proliferation assay (CellTiter-Glo) in KMS11 cells; type: cell-based; conditions: KMS-11, 72 h, Table 5, 3 days, read-out: KMS11-luc EC50
Procedure, shortened: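 KMS11 cells at 2000 per well in IMDM/10% FBS were exposed to compound for 3 days. Viability was read by CellTiter-Glo luminescence.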

Pim2 kinase = Pim2 kinase (Homo sapiens, UniProt Q9P1W9); experiment: Pim2 AlphaScreen assay (high ATP)
Procedure: (§1) The activity of Pim 1, Pim 2, & Pim 3 is measured using a homogeneous bead based system quantifying the amount of phosphorylated peptide substrate resulting from kinase-catalyzed phosphoryl transfer to a peptide substrate. Compounds to be tested are dissolved in 100% DMSO and directly distributed to a white 384-well plate at 0.25 μl per well. […] This is followed by the addition of 5 μl/well of Pim 1, Pim 2 or Pim 3 kinase in assay buffer (concentrations described below). Final assay concentrations (described below) are in 2.5% DMSO. The reactions are performed for ˜2 hours, then stopped by the addition of 10 μl of 0.75 μg/ml anti-phospho Ser/Thr antibody (Cell Signaling), 10 μg/ml Protein A AlphaScreen beads (Perkin Elmer), and 10 μg/ml streptavidin coated AlphaScreen beads in stop/detection buffer (50 mM EDTA, 95 mM Tris, pH=7.5, 0.01% Tween-20). The stopped reactions are incubated overnight in the dark. The phosphorylated peptide is detected via an oxygen anion initiated chemiluminescence/fluorescence cascade using the Envision plate reader (Perkin Elmer).

Pim1 kinase = Pim1 kinase (Homo sapiens, UniProt P11309); experiment: Pim1 AlphaScreen assay (high ATP)
Procedure: as §1

Pim3 kinase = Pim3 kinase (Homo sapiens, UniProt Q86V86); experiment: Pim3 AlphaScreen assay (high ATP)

Chain of Pim1 kinase (P11309 whole entry): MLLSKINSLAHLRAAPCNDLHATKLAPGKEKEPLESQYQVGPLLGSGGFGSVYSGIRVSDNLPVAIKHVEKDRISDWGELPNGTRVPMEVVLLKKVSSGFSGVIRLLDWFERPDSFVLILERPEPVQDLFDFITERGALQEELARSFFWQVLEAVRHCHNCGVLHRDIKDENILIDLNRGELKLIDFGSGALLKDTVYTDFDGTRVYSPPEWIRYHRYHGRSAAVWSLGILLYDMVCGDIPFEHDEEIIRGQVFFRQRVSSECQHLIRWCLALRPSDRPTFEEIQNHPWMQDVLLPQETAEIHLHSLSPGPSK
Chain of Pim2 kinase (Q9P1W9 whole entry): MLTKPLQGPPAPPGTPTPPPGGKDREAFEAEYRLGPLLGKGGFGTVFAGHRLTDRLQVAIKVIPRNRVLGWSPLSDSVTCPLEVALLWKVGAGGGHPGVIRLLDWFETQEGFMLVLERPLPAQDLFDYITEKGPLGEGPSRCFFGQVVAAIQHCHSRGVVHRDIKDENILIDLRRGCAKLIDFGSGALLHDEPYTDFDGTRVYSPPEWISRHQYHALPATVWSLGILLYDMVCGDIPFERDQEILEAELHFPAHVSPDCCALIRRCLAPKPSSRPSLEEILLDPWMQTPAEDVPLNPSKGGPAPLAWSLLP

Structure (SMILES): C[C@H]1C[C@@H](c2ccncc2NC(=O)c2ccc(F)c(-c3c(F)cc(C4(O)CCC4)cc3F)n2)C[C@@H](N)[C@]1(C)O [Example 95, N-(4-((1R,3R,4R,5S)-3-amino-4-hydroxy-4,5-dimethylcyclohexyl)pyridin-3-yl)-6-(2,6-difluoro-4-(1-hydroxycyclobutyl)phenyl)-5-fluoropicolinamide]
- pEC50 [1]: 6.76
- pIC50 (Pim2 kinase): 8.41
- pIC50 (Pim1 kinase): 10.40
- pIC50 (Pim3 kinase): 8.63

Structure (SMILES): C[C@@H]1C[C@H](c2ccncc2NC(=O)c2ccc(F)c(-c3c(F)cc(OC4CCOCC4)cc3F)n2)C[C@H](O)[C@@]1(C)O [Example 96, 6-(2,6-difluoro-4-(tetrahydro-2H-pyran-4-yloxy)phenyl)-N-(4-((1S,3S,4S,5R)-3,4-dihydroxy-4,5-dimethylcyclohexyl)pyridin-3-yl)-5-fluoropicolinamide]
- pEC50 [1]: < 5.00
- pIC50 (Pim2 kinase): 5.06
- pIC50 (Pim1 kinase): 7.73
- pIC50 (Pim3 kinase): 5.58

Structure (SMILES): C[C@H]1C[C@@H](c2ccncc2NC(=O)c2nc(-c3c(F)cc(C(C)(C)O)cc3F)c(F)cc2N)C[C@@H](O)[C@]1(C)O [Example 97, 3-amino-6-(2,6-difluoro-4-(2-hydroxypropan-2-yl)phenyl)-N-(4-((1R,3R,4R,5S)-3,4-dihydroxy-4,5-dimethylcyclohexyl)pyridin-3-yl)-5-fluoropicolinamide]
- pEC50 [1]: 6.39
- pIC50 (Pim2 kinase): 7.54
- pIC50 (Pim1 kinase): 9.62
- pIC50 (Pim3 kinase): 8.08

Structure (SMILES): COCCOc1cc(F)c(-c2nc(C(=O)Nc3cnccc3[C@H]3C[C@@H](O)[C@](C)(O)[C@@H](C)C3)c(N)cc2F)c(F)c1 [Example 98, 3-amino-6-(2,6-difluoro-4-(2-methoxyethoxy)phenyl)-N-(4-((1R,3R,4R,5S)-3,4-dihydroxy-4,5-dimethylcyclohexyl)pyridin-3-yl)-5-fluoropicolinamide]
- pEC50 [1]: 6.37
- pIC50 (Pim2 kinase): 6.88
- pIC50 (Pim1 kinase): 9.08
- pIC50 (Pim3 kinase): 7.40

Structure (SMILES): CC(C)Oc1cc(F)c(-c2nc(C(=O)Nc3cnccc3[C@H]3C[C@@H](O)[C@](C)(O)[C@@H](C)C3)c(N)cc2F)c(F)c1 [Example 99, 3-amino-6-(2,6-difluoro-4-isopropoxyphenyl)-N-(4-((1R,3R,4R,5S)-3,4-dihydroxy-4,5-dimethylcyclohexyl)pyridin-3-yl)-5-fluoropicolinamide]
- pEC50 [1]: 5.94
- pIC50 (Pim2 kinase): 6.97
- pIC50 (Pim1 kinase): 9.02
- pIC50 (Pim3 kinase): 7.34

Structure (SMILES): COCCCOc1cc(F)c(-c2nc(C(=O)Nc3cnccc3[C@H]3C[C@@H](N)[C@](C)(O)[C@@H](C)C3)ccc2F)c(F)c1 [Example 100, N-(4-((1R,3R,4R,5S)-3-amino-4-hydroxy-4,5-dimethylcyclohexyl)pyridin-3-yl)-6-(2,6-difluoro-4-(3-methoxypropoxy)phenyl)-5-fluoropicolinamide]
- pEC50 [1]: 6.47
- pIC50 (Pim2 kinase): 8.67
- pIC50 (Pim1 kinase): 10.40
- pIC50 (Pim3 kinase): 9.16

Structure (SMILES): C[C@H]1C[C@@H](c2ccncc2NC(=O)c2ccc(F)c(-c3c(F)cc(OCC4CCOCC4)cc3F)n2)C[C@@H](N)[C@]1(C)O [Example 101, N-(4-((1R,3R,4R,5S)-3-amino-4-hydroxy-4,5-dimethylcyclohexyl)pyridin-3-yl)-6-(2,6-difluoro-4-((tetrahydro-2H-pyran-4-yl)methoxy)phenyl)-5-fluoropicolinamide]
- pEC50 [1]: 6.48
- pIC50 (Pim2 kinase): 8.66
- pIC50 (Pim1 kinase): 10.40
- pIC50 (Pim3 kinase): 9.07

Structure (SMILES): C[C@H]1C[C@@H](c2ccncc2NC(=O)c2ccc(F)c(-c3c(F)cc4c(c3F)OCC4)n2)C[C@@H](N)[C@]1(C)O [Example 102, N-(4-((1R,3R,4R,5S)-3-amino-4-hydroxy-4,5-dimethylcyclohexyl)pyridin-3-yl)-6-(5,7-difluoro-2,3-dihydrobenzofuran-6-yl)-5-fluoropicolinamide]
- pEC50 [1]: 6.76
- pIC50 (Pim2 kinase): 8.82
- pIC50 (Pim1 kinase): 10.70
- pIC50 (Pim3 kinase): 9.21

Structure (SMILES): C[C@H]1C[C@@H](c2ccncc2NC(=O)c2ccc(F)c(-c3c(F)cc(C(C)(C)C(=O)O)cc3F)n2)C[C@@H](N)[C@]1(C)O [Example 103, 2-(4-(6-(4-((1R,3R,4R,5S)-3-amino-4-hydroxy-4,5-dimethylcyclohexyl)pyridin-3-ylcarbamoyl)-3-fluoropyridin-2-yl)-3,5-difluorophenyl)-2-methylpropanoic acid]
- pEC50 [1]: < 5.00
- pIC50 (Pim2 kinase): 7.85
- pIC50 (Pim1 kinase): 8.84
- pIC50 (Pim3 kinase): 7.23

Structure (SMILES): C[C@H]1C[C@@H](c2ccncc2NC(=O)c2ccc(F)c(-c3c(F)cc(C(F)F)cc3F)n2)C[C@@H](N)[C@]1(C)O [Example 104, N-(4-((1R,3R,4R,5S)-3-amino-4-hydroxy-4,5-dimethylcyclohexyl)pyridin-3-yl)-6-(4-(difluoromethyl)-2,6-difluorophenyl)-5-fluoropicolinamide]
- pEC50 [1]: 6.08
- pIC50 (Pim2 kinase): 8.12
- pIC50 (Pim1 kinase): 10.15
- pIC50 (Pim3 kinase): 8.36

Structure (SMILES): C[C@H]1C[C@@H](c2ccncc2NC(=O)c2ccc(F)c(-c3c(F)cc(C4(O)CCC4)cc3F)n2)C[C@@H](O)[C@]1(C)O [Example 105, 6-(2,6-difluoro-4-(1-hydroxycyclobutyl)phenyl)-N-(4-((1R,3R,4R,5S)-3,4-dihydroxy-4,5-dimethylcyclohexyl)pyridin-3-yl)-5-fluoropicolinamide]
- pEC50 [1]: 5.53
- pIC50 (Pim2 kinase): 6.92
- pIC50 (Pim1 kinase): 9.26
- pIC50 (Pim3 kinase): 7.11

Structure (SMILES): CC(C)Oc1cc(F)c(-c2nc(C(=O)Nc3cnccc3[C@H]3C[C@@H](O)[C@](C)(O)[C@@H](C)C3)ccc2F)c(F)c1 [Example 106, 6-(2,6-difluoro-4-isopropoxyphenyl)-N-(4-((1R,3R,4R,5S)-3,4-dihydroxy-4,5-dimethylcyclohexyl)pyridin-3-yl)-5-fluoropicolinamide]
- pEC50 [1]: 5.81
- pIC50 (Pim2 kinase): 6.74
- pIC50 (Pim1 kinase): 9.38
- pIC50 (Pim3 kinase): 7.16

Structure (SMILES): COCCOc1cc(F)c(-c2nc(C(=O)Nc3cnccc3[C@H]3C[C@@H](O)[C@](C)(O)[C@@H](C)C3)ccc2F)c(F)c1 [Example 107, 6-(2,6-difluoro-4-(2-methoxyethoxy)phenyl)-N-(4-((1R,3R,4R,5S)-3,4-dihydroxy-4,5-dimethylcyclohexyl)pyridin-3-yl)-5-fluoropicolinamide]
- pEC50 [1]: 5.50
- pIC50 (Pim2 kinase): 6.60
- pIC50 (Pim1 kinase): 9.05
- pIC50 (Pim3 kinase): 7.13

Structure (SMILES): C[C@H]1C[C@@H](c2ccncc2NC(=O)c2ccc(F)c(-c3c(F)cc(C4CCOCC4)cc3F)n2)C[C@@H](O)[C@]1(C)O [Example 108, 6-(2,6-difluoro-4-(tetrahydro-2H-pyran-4-yl)phenyl)-N-(4-((1R,3R,4R,5S)-3,4-dihydroxy-4,5-dimethylcyclohexyl)pyridin-3-yl)-5-fluoropicolinamide]
- pEC50 [1]: 6.69
- pIC50 (Pim2 kinase): 7.18
- pIC50 (Pim1 kinase): 9.70
- pIC50 (Pim3 kinase): 7.51

Structure (SMILES): C[C@H]1C[C@@H](c2ccncc2NC(=O)c2ccc(F)c(-c3c(F)cc(N4CCOCC4)cc3F)n2)C[C@@H](O)[C@]1(C)O [Example 109, 6-(2,6-difluoro-4-morpholinophenyl)-N-(4-((1R,3R,4R,5S)-3,4-dihydroxy-4,5-dimethylcyclohexyl)pyridin-3-yl)-5-fluoropicolinamide]
- pEC50 [1]: 6.11
- pIC50 (Pim2 kinase): 6.86
- pIC50 (Pim1 kinase): 9.64
- pIC50 (Pim3 kinase): 7.38

Structure (SMILES): C[C@H]1C[C@@H](c2ccncc2NC(=O)c2ccc(F)c(-c3c(F)cc(OCCO)cc3F)n2)C[C@@H](O)[C@]1(C)O [Example 111, 6-(2,6-difluoro-4-(2-hydroxyethoxy)phenyl)-N-(4-((1R,3R,4R,5S)-3,4-dihydroxy-4,5-dimethylcyclohexyl)pyridin-3-yl)-5-fluoropicolinamide]
- pEC50 [1]: 6.27
- pIC50 (Pim2 kinase): 6.76
- pIC50 (Pim1 kinase): 9.08
- pIC50 (Pim3 kinase): 7.41

Structure (SMILES): C[C@H]1C[C@@H](c2ccncc2NC(=O)c2ccc(F)c(-c3c(F)cc(OC4CCNCC4)cc3F)n2)C[C@@H](O)[C@]1(C)O [Example 112, 6-(2,6-difluoro-4-(piperidin-4-yloxy)phenyl)-N-(4-((1R,3R,4R,5S)-3,4-dihydroxy-4,5-dimethylcyclohexyl)pyridin-3-yl)-5-fluoropicolinamide]
- pEC50 [1]: 5.38
- pIC50 (Pim2 kinase): 7.25
- pIC50 (Pim1 kinase): 9.96
- pIC50 (Pim3 kinase): 7.74

Structure (SMILES): C[C@H]1C[C@@H](c2ccncc2NC(=O)c2ccc(F)c(-c3c(F)cc(C4(F)CCOCC4)cc3F)n2)C[C@@H](O)[C@]1(C)O [Example 113, 6-(2,6-difluoro-4-(4-fluorotetrahydro-2H-pyran-4-yl)phenyl)-N-(4-((1R,3R,4R,5S)-3,4-dihydroxy-4,5-dimethylcyclohexyl)pyridin-3-yl)-5-fluoropicolinamide]
- pEC50 [1]: 6.61
- pIC50 (Pim2 kinase): 6.89
- pIC50 (Pim1 kinase): 9.26
- pIC50 (Pim3 kinase): 6.90

Structure (SMILES): C[C@H]1C[C@@H](c2ccncc2NC(=O)c2nc(-c3c(F)cc(C(C)(C)O)cc3F)ccc2N)C[C@@H](O)[C@]1(C)O [Example 114, 3-amino-6-(2,6-difluoro-4-(2-hydroxypropan-2-yl)phenyl)-N-(4-((1R,3R,4R,5S)-3,4-dihydroxy-4,5-dimethylcyclohexyl)pyridin-3-yl)picolinamide]
- pEC50 [1]: 6.03
- pIC50 (Pim2 kinase): 7.66
- pIC50 (Pim1 kinase): 9.47
- pIC50 (Pim3 kinase): 8.16

Structure (SMILES): CCN1CCC(c2cc(F)c(-c3nc(C(=O)Nc4cnccc4[C@H]4C[C@@H](O)[C@](C)(O)[C@@H](C)C4)ccc3F)c(F)c2)CC1 [Example 115, N-(4-((1R,3R,4R,5S)-3,4-dihydroxy-4,5-dimethylcyclohexyl)pyridin-3-yl)-6-(4-(1-ethylpiperidin-4-yl)-2,6-difluorophenyl)-5-fluoropicolinamide]
- pEC50 [1]: 6.51
- pIC50 (Pim2 kinase): 6.98
- pIC50 (Pim1 kinase): 9.74
- pIC50 (Pim3 kinase): 7.48

Structure (SMILES): C[C@H]1C[C@@H](c2ccncc2NC(=O)c2ccc(F)c(-c3c(F)cc(OCC(F)(F)F)cc3F)n2)C[C@@H](N)[C@]1(C)O [Example 118, N-(4-((1R,3R,4R,5S)-3-amino-4-hydroxy-4,5-dimethylcyclohexyl)pyridin-3-yl)-6-(2,6-difluoro-4-(2,2,2-trifluoroethoxy)phenyl)-5-fluoropicolinamide]
- pEC50 [1]: 6.27
- pIC50 (Pim2 kinase): 8.45
- pIC50 (Pim1 kinase): 10.15
- pIC50 (Pim3 kinase): 8.79
